Data as given in PubChem BioAssay AID248 (DTP/NCI, 2004).
Values joined by “and” are separate entries in the source; they are usually repeats but may differ in a detail not shown here. Identical values can stand only once. Toxic doses and inconclusive results are not listed.

Tested on: L1210 leukemia ip in BDF1 mice, survival T/C
Experiment: NCI In Vivo Anticancer Drug Screen. Data for tumor model L1210 Leukemia (intraperitoneal) in B6D2F1 (BDF1) mice
Details: endpoint: mean survival time, higher = longer survival
How it was run: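 Mice bearing the transplanted tumor received compound or vehicle. Survival of the treated group was divided by that of the vehicle-treated control group to give the ratio.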

SMILES: O=C1CN=C(c2ccc[nH]2)c2cc(Cl)ccc2N1
- T/C (dose: 1.56 mg/kg/injection, schedule: Q03HX008 (oral), vehicle: saline with Tween-80): 98 % of control
- T/C (dose: 1.56 mg/kg/injection, schedule: Q03HX016 (oral), vehicle: saline with Tween-80): 103 % of control
- T/C (dose: 1.56 mg/kg/injection, schedule: Q03HX024 (oral), vehicle: saline with Tween-80): 98 % of control
- T/C (dose: 3.12 mg/kg/injection, schedule: Q03HX008 (oral), vehicle: saline with Tween-80): 97 % of control
- T/C (dose: 3.12 mg/kg/injection, schedule: Q03HX016 (oral), vehicle: saline with Tween-80): 102 % of control
- T/C (dose: 3.12 mg/kg/injection, schedule: Q03HX024 (oral), vehicle: saline with Tween-80): 100 % of control
- T/C (dose: 6.25 mg/kg/injection, schedule: Q03HX008 (oral), vehicle: saline with Tween-80): 98 % of control
- T/C (dose: 6.25 mg/kg/injection, schedule: Q03HX016 (ip), vehicle: other): 105 % of control
- T/C (dose: 6.25 mg/kg/injection, schedule: Q03HX016 (oral), vehicle: saline with Tween-80): 98 % of control
- T/C (dose: 6.25 mg/kg/injection, schedule: Q03HX024 (ip), vehicle: other): 114 % of control
- T/C (dose: 6.25 mg/kg/injection, schedule: Q03HX024 (oral), vehicle: saline with Tween-80): 97 % of control
- T/C (dose: 7.13 mg/kg/injection, schedule: Q01DX009 (ip), vehicle: clinical formulation): 102 % of control
- T/C (dose: 12.5 mg/kg/injection, schedule: Q03HX008 (oral), vehicle: saline with Tween-80): 102 % of control
- T/C (dose: 12.5 mg/kg/injection, schedule: Q03HX016 (ip), vehicle: other): 104 % of control
- T/C (dose: 12.5 mg/kg/injection, schedule: Q03HX016 (oral), vehicle: saline with Tween-80): 97 % of control
- T/C (dose: 12.5 mg/kg/injection, schedule: Q03HX024 (ip), vehicle: other): 114 % of control
- T/C (dose: 12.5 mg/kg/injection, schedule: Q03HX024 (oral), vehicle: saline with Tween-80): 101 % of control
- T/C (dose: 14.2 mg/kg/injection, schedule: Q01DX009 (ip), vehicle: clinical formulation): 103 % of control
- T/C (dose: 25.0 mg/kg/injection, schedule: Q01DX006 (iv), vehicle: other): 100 % of control
- T/C (dose: 25.0 mg/kg/injection, schedule: Q03HX008 (oral), vehicle: saline with Tween-80): 100 % of control and 101 % of control
- T/C (dose: 25.0 mg/kg/injection, schedule: Q03HX016 (ip), vehicle: other): 112 % of control
- T/C (dose: 25.0 mg/kg/injection, schedule: Q03HX016 (oral), vehicle: saline with Tween-80): 95 % of control and 103 % of control
- T/C (dose: 25.0 mg/kg/injection, schedule: Q03HX024 (oral), vehicle: saline with Tween-80): 95 % of control and 98 % of control
- T/C (dose: 33.0 mg/kg/injection, schedule: Q01DX015 (ip), vehicle: other): 123 % of control
- T/C (dose: 33.0 mg/kg/injection, schedule: Q01DX Z (ip), vehicle: carboxymethylcellulose (CMC)): 120 % of control
- T/C (dose: 34.0 mg/kg/injection, schedule: Q01DX009 (ip), vehicle: other): 105 % of control
- T/C (dose: 50.0 mg/kg/injection, schedule: Q01DX001 (iv), vehicle: other): 101 % of control
- T/C (dose: 50.0 mg/kg/injection, schedule: Q01DX006 (iv), vehicle: other): 102 % of control
- T/C (dose: 50.0 mg/kg/injection, schedule: Q01DX009 (ip), vehicle: Klucel (hydroxypropylcellulose) (HPC)): 103 % of control
- T/C (dose: 50.0 mg/kg/injection, schedule: Q01DX009 (ip), vehicle: water): 118 % of control
- T/C (dose: 50.0 mg/kg/injection, schedule: Q01DX015 (ip), vehicle: other): 121 % of control
- T/C (dose: 50.0 mg/kg/injection, schedule: Q01DX Z (ip), vehicle: carboxymethylcellulose (CMC)): 155 % of control
- T/C (dose: 50.0 mg/kg/injection, schedule: Q03HX008 (oral), vehicle: saline with Tween-80): 108 % of control
- T/C (dose: 50.0 mg/kg/injection, schedule: Q03HX016 (ip), vehicle: other): 122 % of control
- T/C (dose: 50.0 mg/kg/injection, schedule: Q03HX016 (oral), vehicle: saline with Tween-80): 112 % of control
- T/C (dose: 50.0 mg/kg/injection, schedule: Q03HX024 (ip), vehicle: other): 150 % of control
- T/C (dose: 50.0 mg/kg/injection, schedule: Q03HX024 (oral), vehicle: saline with Tween-80): 110 % of control
- T/C (dose: 50.0 mg/kg/injection, schedule: Q04DX003 (ip), vehicle: other): 108 % of control
- T/C (dose: 50.0 mg/kg/injection, schedule: Q08DX002 (ip), vehicle: other): 96 % of control
- T/C (dose: 52.0 mg/kg/injection, schedule: Q01DX009 (ip), vehicle: other): 98 % of control
- T/C (dose: 75.0 mg/kg/injection, schedule: Q01DX Z (ip), vehicle: carboxymethylcellulose (CMC)): 174 % of control
- T/C (dose: 80.0 mg/kg/injection, schedule: Q01DX009 (ip), vehicle: other): 108 % of control
- T/C (dose: 100.0 mg/kg/injection, schedule: Q01DX001 (ip), vehicle: other): 98 % of control
- T/C (dose: 100.0 mg/kg/injection, schedule: Q01DX001 (iv), vehicle: other): 101 % of control
- T/C (dose: 100.0 mg/kg/injection, schedule: Q01DX001 (oral), vehicle: saline with Tween-80): 102 % of control
- T/C (dose: 100.0 mg/kg/injection, schedule: Q01DX006 (iv), vehicle: other): 110 % of control
- T/C (dose: 100.0 mg/kg/injection, schedule: Q01DX009 (ip), vehicle: Klucel (hydroxypropylcellulose) (HPC)): 105 % of control
- T/C (dose: 100.0 mg/kg/injection, schedule: Q01DX009 (oral), vehicle: saline with Tween-80): 114 % of control
